The subject of series [1] is HT-22. As to the kind of experiment: Cytoprotective activity against tunicamycin-induced cell death in mouse HT22 cells after 24 hrs by MTT assay. Format: functional, cell-based. Conditions: for EC50: HT-22, 24 h.
In series [2] the test system is HT-22. As to the kind of experiment: Cytoprotective activity against tunicamycin-induced cell death in mouse HT22 cells at 20 uM after 24 hrs by MTT assay. In kind it is functional, cell-based.
Series [3] has as its system HT-22. As to the kind of experiment: Suppression of TM-induced increase in CHOP expression in mouse HT22 cells at 20 uM after 12 hrs by Western blot analysis. In kind it is functional, cell-based.
Series [4] concerns HT-22. As to the kind of experiment: Effect on CHOP expression in mouse HT22 cells at 20 uM after 12 hrs by Western blot analysis. In kind it is cell-based. As to conditions: ht-22, 12 h.
The subject of series [5] is HT-22. As to the kind of experiment: Cytoprotective activity against tunicamycin-induced cell death in mouse HT22 cells assessed as preservation of spindle shape morphology after 24 hrs by MTT assay. In kind it is functional, cell-based.
Series [6] deals with HT-22. The series is described as follows: Cytotoxicity against mouse HT22 cells at 20 uM after 24 hrs by MTT assay. Format: cell-based. Conditions: ht-22, 24 h.

Active and inactive are the calls of the source. The rule behind the calls is not given here.

With `O=C(O)Cc1ccc2c(c1)/C(=C1/Nc3ccccc3C1=O)C(=O)N2`, in the series on HT-22 [1], the Activity entry is “Dose-dependent effect”.
On the same count and under the same terms, in the case of `O=C1Nc2ccc(O)cc2/C1=C1/Nc2ccccc2C1=O` it was “Dose-dependent effect”.
Turning to `COc1ccc2c(c1)NC(=O)/C2=C1\Nc2ccccc2\C1=N/O`, the Activity result in the series with HT-22 [1] is “Dose-dependent effect”. The result in the series on HT-22 [2] was Active.
Taken in the same sequence, the figures for `O=C1Nc2ccccc2/C1=C1/Nc2cc(Br)ccc2/C1=N\O` were “Dose-dependent effect” and “Active”.
With `COc1ccc2c(c1)/C(=C1/Nc3ccc(OC)cc3/C1=N\O)C(=O)N2`, the Activity entry with HT-22 [1] was “Dose-dependent effect”.
Regarding `O=C1Nc2ccc(Br)cc2/C1=C1/Nc2ccc(Br)cc2C1=O`, the outcome in the series with HT-22 [3], with HT-22 [5] and in the series with HT-22 [2] was Active. In addition, the results for the Activity result in the series with HT-22 [4], with HT-22 [6] and in the series on HT-22 [1] were “Non-Toxic”, “Non-Toxic” and “Dose-dependent effect”, respectively. The compound further yielded an EC50 with HT-22 [1] of 21.3 µM.
For the compound `COc1cc2c(cc1OC)/C(=C1/Nc3ccccc3/C1=N\O)C(=O)N2`, in the series with HT-22 [1], the Activity result was “Dose-dependent effect”. Besides, in the series on HT-22 [2], the result was Active.
Regarding `O=C1Nc2c(O)cccc2/C1=C1/Nc2ccccc2C1=O`, in the series on HT-22 [1], the Activity entry was “Dose-dependent effect”.
Regarding `O=C1Nc2cc(Br)ccc2/C1=C1/Nc2ccccc2C1=O`, the outcome in the series on HT-22 [2] was inactive.
As for `O=C1Nc2ccc(Br)cc2/C1=C1/Nc2ccc(Br)cc2/C1=N\O`, the Activity entry with HT-22 [6] was “Toxic”; in the series on HT-22 [1] it was “Dose-dependent effect”. Besides, the result in the series on HT-22 [2] was Active.
For the compound `CN1C(=O)/C(=C2\Nc3ccccc3C2=O)c2ccc(Br)cc21`, in the series with HT-22 [2], the outcome was inactive.
With `Cc1ccc2c(c1)C(=O)/C(=C1/C(=O)Nc3ccccc31)N2`, in the series with HT-22 [1], the Activity result is “Dose-dependent effect”.
On the same count and under the same terms, in the case of `CC(C)c1ccc2c(c1)/C(=C1/Nc3ccccc3C1=O)C(=O)N2` it was “Dose-dependent effect”.
For the compound `Cc1ccc2c(c1)/C(=C1/Nc3ccccc3C1=O)C(=O)N2`, the outcome with HT-22 [3], with HT-22 [5] and in the series with HT-22 [2] was Active. Further, the Activity result with HT-22 [4] is “Non-Toxic”; in the series on HT-22 [6], “Non-Toxic”; in the series with HT-22 [1], “Dose-dependent effect”. Moreover, a half-maximal effect in the series on HT-22 [1] (EC50) was put at 30.8 µM.
As to `CC(=O)N1C(=O)/C(=C2\Nc3ccccc3C2=O)c2ccccc21`, the result with HT-22 [3], with HT-22 [5] and in the series with HT-22 [2] was Active. The Activity entry is “Non-Toxic” in the series with HT-22 [4], “Non-Toxic” in the series with HT-22 [6] and “Dose-dependent effect” with HT-22 [1]. In the series with HT-22 [1], this compound returned an EC50 of 9.8 µM.
For `O=C1Nc2cc(O)ccc2/C1=C1/Nc2ccccc2C1=O`, the result in the series with HT-22 [3], in the series with HT-22 [5] and in the series on HT-22 [2] was Active. Also, the Activity entry is “Non-Toxic” in the series on HT-22 [4], “Non-Toxic” in the series with HT-22 [6] and “Dose-dependent effect” in the series on HT-22 [1]. The compound also came in with an EC50 with HT-22 [1] of 23.7 µM.
For the compound `CC(C)(C)c1ccc2c(c1)/C(=C1/Nc3ccccc3/C1=N\O)C(=O)N2`, in the series with HT-22 [1], the Activity result is “Dose-dependent effect”. Further, the result in the series on HT-22 [2] was Active.
For `COc1ccc2c(c1)/C(=C1/Nc3ccccc3/C1=N\O)C(=O)N2` the same measures were “Dose-dependent effect” and “Active”.
Regarding `O=C1Nc2ccc(Br)cc2/C1=C1/Nc2ccccc2/C1=N\O` [INDIRUBIN 2], the outcome in the series on HT-22 [3], with HT-22 [5] and in the series with HT-22 [2] was Active. The Activity entry was “Non-Toxic” in the series with HT-22 [4], “Non-Toxic” in the series on HT-22 [6] and “Dose-dependent effect” in the series on HT-22 [1]. The compound also gave an EC50 in the series with HT-22 [1] of 85.8 µM.
`COc1ccc2c(c1)N/C(=C1\C(=O)Nc3ccccc31)C2=O`: in the series on HT-22 [1], the Activity entry is “Dose-dependent effect”.
Same read-out and setting: the same measure for `O=C1Nc2ccccc2/C1=C1/Nc2ccccc2/C1=N\OCC1CO1` (stereo not given): “Dose-dependent effect”.
For the compound `CCc1ccc2c(c1)C(=O)/C(=C1/C(=O)Nc3ccccc31)N2`, the outcome in the series on HT-22 [3], in the series on HT-22 [5] and in the series on HT-22 [2] was Active. The Activity entry was “Non-Toxic” in the series on HT-22 [4], “Non-Toxic” in the series on HT-22 [6] and “Dose-dependent effect” in the series with HT-22 [1]. For the same compound, the EC50 in the series with HT-22 [1] was found to be 24.5 µM.
For the compound `O=C1Nc2ccccc2/C1=C1/Nc2cc(Br)ccc2C1=O`, the Activity entry in the series on HT-22 [1] was “Dose-dependent effect”.
Same read-out and setting: in the case of `COc1cc2c(cc1OC)/C(=C1/Nc3ccccc3C1=O)C(=O)N2` it was “Dose-dependent effect”.
With `Cc1ccc2c(c1)/C(=C1/Nc3ccccc3/C1=N\O)C(=O)N2`, in the series with HT-22 [1], the Activity result was “Dose-dependent effect”. In addition, in the series on HT-22 [2], the result was Active.
With `O=C1Nc2ccccc2/C1=C1/Nc2ccccc2C1=O` [INDIRUBIN], the Activity result is “Toxic” in the series with HT-22 [6] and “Dose-dependent effect” in the series on HT-22 [1].
Turning to `CC(C)(C)c1ccc2c(c1)/C(=C1/Nc3ccccc3C1=O)C(=O)N2`, in the series with HT-22 [1], the Activity result was “Dose-dependent effect”.
Same read-out and setting: in the case of `O=C1Nc2ccccc2/C1=C1/Nc2ccc(Br)cc2C1=O` it was “Dose-dependent effect”.
Take `COc1cccc2c1NC(=O)/C2=C1\Nc2ccccc2\C1=N/O`: the Activity entry with HT-22 [1] was “Dose-dependent effect”. Further, the outcome in the series on HT-22 [2] was Active.
`COc1cccc2c1NC(=O)/C2=C1\Nc2ccccc2C1=O`: the Activity entry in the series on HT-22 [1] is “Dose-dependent effect”.
With `CN1C(=O)/C(=C2\Nc3ccccc3\C2=N/O)c2ccc(Br)cc21`, the Activity entry in the series with HT-22 [1] is “Dose-dependent effect”. Further, the result in the series on HT-22 [2] was Active.
For `COc1ccc2c(c1)/C(=C1/Nc3ccccc3C1=O)C(=O)N2`, the Activity result with HT-22 [1] was “Dose-dependent effect”.
With `O=C1Nc2ccccc2/C1=C1/Nc2ccccc2/C1=N\O`, the Activity entry was “Toxic” in the series with HT-22 [6] and “Dose-dependent effect” in the series with HT-22 [1]. Further, the result in the series with HT-22 [2] was Active.
`COc1ccc2c(c1)C(=N\O)/C(=C1/C(=O)Nc3ccccc31)N2`: the Activity entry with HT-22 [1] is “Dose-dependent effect”. For the same compound, in the series on HT-22 [2], the outcome was Active.
`O=C1Nc2ccc(Br)cc2/C1=C1/Nc2ccccc2C1=O`: the outcome with HT-22 [3], in the series with HT-22 [5] and in the series on HT-22 [2] was Active. The results for the Activity entry in the series with HT-22 [4], in the series with HT-22 [6] and in the series on HT-22 [1] were “Non-Toxic”, “Non-Toxic” and “Dose-dependent effect”, respectively. It took 36 µM to reach a half-maximal effect with HT-22 [1] (EC50).
For the compound `O=C1Nc2ccccc2/C1=C1/Nc2ccc(Br)cc2/C1=N\O`, in the series on HT-22 [1], the Activity result was “Dose-dependent effect”. For the same compound, the result in the series with HT-22 [2] was Active.
In the case of `COc1ccc2c(c1)NC(=O)/C2=C1\Nc2ccccc2C1=O`, the Activity result in the series with HT-22 [1] was “Dose-dependent effect”.
Still for that read-out and setting: the same measure for `COc1ccc2c(c1)C(=O)/C(=C1/C(=O)Nc3ccccc31)N2`: “Dose-dependent effect”.
As for `O=C1Nc2c(Br)cccc2/C1=C1/Nc2ccccc2C1=O`, the result in the series on HT-22 [2] was inactive.
As for `CC(C)c1ccc2c(c1)/C(=C1/Nc3ccccc3/C1=N\O)C(=O)N2`, the Activity result in the series on HT-22 [1] was “Dose-dependent effect”. In the series with HT-22 [2], the result was Active.
`O=C1Nc2cc(Br)ccc2/C1=C1/Nc2ccccc2/C1=N\O` [6BIO]: the Activity entry with HT-22 [6] is given as “Toxic”. For the same compound, the result in the series with HT-22 [2] was inactive.
As to `CCc1ccc2c(c1)/C(=C1/Nc3ccccc3C1=O)C(=O)N2`, the Activity entry in the series on HT-22 [1] was “Dose-dependent effect”.
As for `COc1ccc2c(c1)C(=O)/C(=C1/C(=O)Nc3ccc(OC)cc31)N2`, the outcome in the series with HT-22 [3], in the series with HT-22 [5] and with HT-22 [2] was Active. Besides, the values for the Activity entry with HT-22 [4], in the series on HT-22 [6] and with HT-22 [1] were “Non-Toxic”, “Non-Toxic” and “Dose-dependent effect”, respectively. The compound further came in with an EC50 in the series on HT-22 [1] of 30 µM.
`CCc1ccc2c(c1)/C(=C1/Nc3ccccc3/C1=N\O)C(=O)N2`: the Activity result in the series with HT-22 [1] was “Dose-dependent effect”. In the series with HT-22 [2], the outcome was Active.

Source of the values: ChEMBL document CHEMBL4177682, “Indirubin derivatives protect against endoplasmic reticulum stress-induced cytotoxicity and down-regulate CHOP levels in HT22 cells” (Bioorg Med Chem Lett, 2017).
